Literature values as cited in patent US20070224637A1, “Oxidative protection of lipid layer biosensors” (priority 2006, published 2007).

| Molecule | Solubility In alcohol | Solubility In oil | Solubility In water |
| --- | --- | --- | --- |
| O[C@H](CS)[C@H](O)CS (racemic) [Dithiothreitol] | Yes | No | Yes |
| CC(C)(C)c1cc(CO)cc(C(C)(C)C)c1O [4-Hydroxymethyl-2,6-di-tert-butylphenol] | Yes | Yes | Yes |
| CC(=O)N[C@@H](CS)C(=O)O [Acetylcysteine] | Yes | No | Yes |
| CCCCCCCCCCCCCCCC(=O)OC[C@H](O)[C@H]1OC(=O)C(O)=C1O [Ascorbyl palmitate] | Yes | Yes | Yes |
| COc1ccc(O)c(C(C)(C)C)c1 [Butylated hydroxyanisole] | Yes | Yes | No |
| Cc1cc(C(C)(C)C)c(O)c(C(C)(C)C)c1 [Butylated hydroxytoluene] | Yes | Yes | No |
| O=S([O-])O.O=S([O-])O.[Ca+2] [Calcium bisulfite] | – | – | Yes |
| O=S([O-])[O-].[Ca+2] [Calcium sulfite] | Yes | – | Yes |
| N[C@@H](CS)C(=O)O [Cysteine] | Yes | No | Yes |
| CCCCCCCCCCCCOC(=O)c1cc(O)c(O)c(O)c1 [Dodecyl gallate] | Yes | Yes | No |
| CCOc1ccc2c(c1)C(C)=CC(C)(C)N2 [Ethoxyquin] | – | Yes | – |
| CCOC(=O)c1cc(O)c(O)c(O)c1 [Ethyl gallate] | Yes | No | Slightly |
| O=C(O)c1cc(O)c(O)c(O)c1 [Gallic acid] | Yes | Yes | Yes |
| N[C@@H](CCC(=O)N[C@@H](CS)C(=O)NCC(=O)O)C(=O)O [Glutathione] | – | – | Yes |
| Cc1cc2c(C(C)C)c(O)c(O)c(C=O)c2c(O)c1-c1c(C)cc2c(C(C)C)c(O)c(O)c(C=O)c2c1O [Gossypol] | Yes | Yes | No |
| Oc1ccc(O)cc1 [Hydroquinone] | Yes | Yes | Yes |
| O=[PH2]O [Hypophosphorus acid] | – | – | Yes |

| Molecule | Solubility In alcohol | Solubility In oil | Solubility In water |
| --- | --- | --- | --- |
| OCC(O)CS (stereo not shown) [Monothioglycerol] | Yes | – | Yes |
| CC(Cc1ccc(O)c(O)c1)C(C)Cc1ccc(O)c(O)c1 (stereo not shown) [Nordihydroguaiaretic acid] | Yes | Yes | No |
| CCCCCCCCOC(=O)c1cc(O)c(O)c(O)c1 [Octyl gallate] | Yes | Yes | No |
| O=S([O-])S(=O)(=O)[O-].[K+].[K+] [Potassium metabisulfite] | No | No | Yes |
| CCCOC(=O)c1cc(O)c(O)c(O)c1 [Propyl gallate] | Yes | Slightly | Slightly |
| O=S([O-])O.[Na+] [Sodium bisulfite] | – | No | Yes |
| O=S([O-])S(=O)(=O)[O-].[Na+].[Na+] [Sodium metabisulfite] | Slightly | – | Yes |
| O=S([O-])[O-].[Na+].[Na+] [Sodium sulfite] | No | – | Yes |
| O=S=O [Sulfur dioxide] | Yes | Yes | Yes |
| O=C(OC[C@H]1O[C@@H](OC(=O)c2cc(O)c(O)c(OC(=O)c3cc(O)c(O)c(O)c3)c2)[C@H](OC(=O)c2cc(O)c(O)c(OC(=O)c3cc(O)c(O)c(O)c3)c2)[C@@H](OC(=O)c2cc(O)c(O)c(OC(=O)c3cc(O)c(O)c(O)c3)c2)[C@@H]1OC(=O)c1cc(O)c(O)c(OC(=O)c2cc(O)c(O)c(O)c2)c1)c1cc(O)c(O)c(OC(=O)c2cc(O)c(O)c(O)c2)c1 [Tannic acid] | – | – | Yes |
| OC[C@@H](O)[C@@H](O)[C@H](O)[C@@H](O)CS [Thiosorbitol] | Yes | Yes | Yes |
| NC(N)=S [Thiourea] | Yes | No | Yes |
| Cc1c(C)c2c(c(C)c1O)CC[C@@](C)(CCC[C@H](C)CCC[C@H](C)CCCC(C)C)O2 [d-α-tocopherol (syn), d-α-tocopherol] | Yes | Yes | No |
| Cc1c(O)cc2c(c1C)O[C@](C)(CCC[C@H](C)CCC[C@H](C)CCCC(C)C)CC2 [γ-tocopherol (syn), γ-tocopherol] | Yes | Yes | No |
| D-tocopherol [D-tocopherol (syn)] | Yes | Yes | No |
| Tocopherols | – | Yes | – |
